From patent publication EP3339444A1, “METHOD FOR OBTAINING A GL[…] AN INCREASED PERCENTAGE OF AF[…]” (Mabxience Research, S.L., priority 2016, dated 2018)

How the values were obtained:
[1] = test system: CHO cell line producing adalimumab; assay: Glycosylation profile (N-linked glycans released, labeled, chromatography) with arginine in culture; assay type: cell-based, Chinese Hamster
Protocol: (§1) A transduced CHO cell line was used with three different culture media (Media 1, 2 and 3) in a fed-batch process with 5 different feeds (Feed 1,2,3,4 and 5) and at two culture scales, AMBR system (15 mL culture) and 1 L scale Bioreactors. Feeding strategy was based on maintaining glucose concentration between 3-4 g/L through the addition of different amount of feeding depending on glucose concentration measurement in culture media.
(§2) Process parameters & Conditions AMBR: T: 36.5 °C; Stirrer: 900 rpm; DO: 20%; pH:6.8-7.20; initial density: 0.5x10^6 cells/mL. Process parameters & Conditions 1 L: T: 36.5 °C; Stirrer: 200 rpm/240 rpm (day 7); DO: 20%; pH: 6.8-7.20; initial density: 0.5x10^6 cells/mL.
N-linked glycans were released from IgG samples by overnight incubation with N-glycosidase. The released glycans were labeled with a specific fluorophore. The labeled glycans were bound and separate by a chromatography. N-linked glycan structures were assigned to peaks based on comparison to reference structures. The amount of each structure is expressed as the percentage of total peak area. G0, G1, and G2 refer to complex, neutral, biantennary structures with 0, 1, or 2 terminal galactose residues, while G0F, G1 F, are G2F, are the corresponding core fucosylated structures.
Afucosylation: [GO-GlcNac + G0 + G1 + G2] / [GO-GlcNac + G0 + G0F + G1 + G1 F + G2 + G2F]

[2] = test system: CHO cell line producing adalimumab; assay: Viable cell density (VCD) and viability in fed-batch culture with arginine; assay type: cell-based, Chinese Hamster
Protocol: The cells were cultured in AMBR vessels in the cell culture media described above. The vessels were maintained at 36.5 °C, pH 7±0.2, 20% of DO and at 900 rpm of stirrer. They were seeded at 0.5 x 10^6 cells per ml in a volume of 11 mL. On days 0, 3, and 5, at least 2% of initial culture volume of feed medium and 0.2% of initial culture volume of cystine/tyrosine were added. Day 0 is the day in which the cultures were started, day 1 is the first day thereafter, day 2 is the second day thereafter, etc. Protein titer was determined on days 10, 12, 14 and 16.
The cells were cultured in 1 L scale bioreactor in the above described cell culture media. The cultures were maintained at 36.5 °C, pH 7±0.2, 20% of oxygen dissolved (DO) and at 200 rpm of stirrer. They were seeded at 0.5 x 10^6 cells per ml in a volume of 600mL. On days 0, 3, and 5, at least 2% of initial culture volume of feed medium and 0.2% of initial culture volume of cystine/tyrosine were added.
as §1, §2

[3] = Media_1 Feed_2, 2 and 4 g/L arginine, AMBR

**Q.** N=C(N)NCCC[C@H](N)C(=O)O [Arg, arginine] was tested. Which “increment in G0 forms” value ([1]; Media_2 Feed_1, 4 g/L arginine, day 16, 1 L bioreactor) did it give?
**A.** higher than 50%

**Q.** What about the “increment in G1 forms” value ([1]; Media_3 Feed_3, 4 g/L arginine, day 14, AMBR) of the same molecule?
**A.** higher than 50%

**Q.** And the “increment in G1 forms” value ([1]; Media_3 Feed_4, 4 g/L arginine, day 16, AMBR)?
**A.** higher than 50%

**Q.** What about the “reduction of VCD (maximum)” value [2, 3] of the same molecule?
**A.** about 2 million cells

**Q.** What about the viability [2, 3] of the same molecule?
**A.** do nott affect viability

**Q.** And the “cell growth and viability” value ([2]; Media_1 Feed_2, 8 g/L arginine, AMBR)?
**A.** important reduction on cell growth affecting viability

**Q.** And the maximum cell density ([2]; Media_2 Feed_1, 0-4 g/L arginine, AMBR)?
**A.** does not reduce the maximum cell density reached

**Q.** What about the maximum cell density ([2]; Media_2 Feed_1, 4 g/L arginine, 1 L bioreactor) of the same molecule?
**A.** a delay and a decrease in the obtained maximum cell density

**Q.** What about the “maximum VCD” value ([2]; Media_2 Feed_2, 2 g/L arginine, AMBR) of the same molecule?
**A.** does not affect maximum VCD

**Q.** And the cell growth ([2]; Media_2 Feed_2, 8 g/L arginine, AMBR)?
**A.** important reduction on cell growth

**Q.** And the cell growth ([2]; Media_3 Feed_1, 2 to 4 g/L arginine, AMBR)?
**A.** reduces cell growth

**Q.** What about the cell density ([2]; Media_3 Feed_3, 4 g/L arginine in combination with ferric citrate, AMBR) of the same molecule?
**A.** does not have a negative effect in cell density

**Q.** What about the cell density ([2]; Media_3 Feed_4, 4 g/L arginine in combination with 1 mM 3-methyl butyrate, AMBR) of the same molecule?
**A.** does not have a negative effect in cell density
